ChEMBL document CHEMBL3046912, “Effectiveness of 1,3-dichloropropene as an alternative to methyl bromide in rotations of tomato (Solanum lycopersicum) and cucumber (Cucumis sativus) in China” (2012)
Activity calls are given as the source filed them. The rule behind the calls is not given here.

Experiments:
Capsella bursa-pastoris [1] = experiment: Herbicidal activity against Capsella bursa-pastoris in cucumber plants fields exposed to 180 L/ha compound fumigation treatment assessed as hand weeding time per plot relative to untreated control; assay type: functional
Arenaria serpyllifolia [2] = experiment: Herbicidal activity against Arenaria serpyllifolia in tomato plants fields exposed to 90 L/ha compound fumigation treatment assessed as hand weeding time per plot relative to untreated control; assay type: functional
Digitaria sanguinalis [3] = experiment: Herbicidal activity against Digitaria sanguinalis (hairy crabgrass) in tomato plants fields exposed to 90 L/ha compound fumigation treatment assessed as hand weeding time per plot relative to untreated control; assay type: functional
Solanum lycopersicum [4] = experiment: Increase in crop yield in Cucumis sativus (cucumber) plants exposed to 180 L/ha compound fumigation treatment assessed as marketable yield fruit yield (reference value: 65.3 ton/ha); assay type: functional
Digitaria sanguinalis [5] = experiment: Herbicidal activity against Digitaria sanguinalis (hairy crabgrass) in cucumber plants fields exposed to 90 L/ha compound fumigation treatment assessed as hand weeding time per plot relative to untreated control; assay type: functional
Phytophthora melonis = experiment: Fungicidal activity against Phytophthora melonis-induced blight disease in cucumber plants at 120 to 180 L/ha measured 20 to 60 days post compound treatment; assay type: functional, organism-based
Solanum lycopersicum [6] = experiment: Increase in crop yield in Solanum lycopersicum (tomato) plants exposed to 180 L/ha compound fumigation treatment assessed as marketable yield fruit yield (reference value: 51.3 ton/ha); assay type: functional
Solanum lycopersicum [7] = experiment: Increase in crop yield in Cucumis sativus (cucumber) plants exposed to 120 L/ha compound fumigation treatment assessed as large fruit yield (reference value: 19.5 ton/ha); assay type: functional
Solanum lycopersicum [8] = experiment: Increase in crop yield in Cucumis sativus (cucumber) plants exposed to 90 L/ha compound fumigation treatment assessed as extra-large fruit yield (reference value: 7.2 ton/ha); assay type: functional
Arenaria serpyllifolia [9] = experiment: Herbicidal activity against Arenaria serpyllifolia in tomato plants fields exposed to 120 L/ha compound fumigation treatment assessed as hand weeding time per plot (reference value: 243.3 hr/ha); assay type: functional
Solanum lycopersicum [10] = experiment: Increase in plant height of Solanum lycopersicum (tomato) exposed to 120 L/ha compound fumigation treatment measured 50 days after compound treatment (reference value: 86.2 cm); assay type: functional
Solanum lycopersicum [11] = experiment: Increase in crop yield in Cucumis sativus (cucumber) plants exposed to 120 L/ha compound fumigation treatment assessed as marketable yield fruit yield (reference value: 65.3 ton/ha); assay type: functional
Solanum lycopersicum [12] = experiment: Increase in crop yield in Cucumis sativus (cucumber) plants exposed to 120 L/ha compound fumigation treatment assessed as medium fruit yield (reference value: 38.6 ton/ha); assay type: functional
Capsella bursa-pastoris [13] = experiment: Herbicidal activity against Capsella bursa-pastoris in tomato plants fields exposed to 90 L/ha compound fumigation treatment assessed as hand weeding time per plot (reference value: 243.3 hr/ha); assay type: functional
Digitaria sanguinalis [14] = experiment: Herbicidal activity against Digitaria sanguinalis (hairy crabgrass) in cucumber plants fields exposed to 120 L/ha compound fumigation treatment assessed as hand weeding time per plot (reference value: 258.3 hr/ha); assay type: functional
Solanum lycopersicum [15] = experiment: Increase in crop yield in Solanum lycopersicum (tomato) plants exposed to 120 L/ha compound fumigation treatment assessed as marketable yield fruit yield (reference value: 51.3 ton/ha); assay type: functional
Solanum lycopersicum [16] = experiment: Increase in crop yield in Solanum lycopersicum (tomato) plants exposed to 90 L/ha compound fumigation treatment assessed as marketable yield fruit yield (reference value: 51.3 ton/ha); assay type: functional
Solanum lycopersicum [17] = experiment: Increase in crop yield in Cucumis sativus (cucumber) plants exposed to 90 L/ha compound fumigation treatment assessed as large fruit yield (reference value: 19.5 ton/ha); assay type: functional
Digitaria sanguinalis [18] = experiment: Herbicidal activity against Digitaria sanguinalis (hairy crabgrass) in tomato plants fields exposed to 180 L/ha compound fumigation treatment assessed as hand weeding time per plot relative to untreated control; assay type: functional
Solanum lycopersicum [19] = experiment: Increase in crop yield in Solanum lycopersicum (tomato) plants exposed to 120 L/ha compound fumigation treatment assessed as medium fruit yield (reference value: 32.3 ton/ha); assay type: functional
Meloidogyne incognita [20] = experiment: Nematicidal activity against Meloidogyne incognita (root-knot nematode) in cucumber growing fields exposed to 180 L/ha compound fumigation treatment assessed as root galling index measured 20 days after compound treatment (reference value: 8.72 root galling index); assay type: functional
Capsella bursa-pastoris [21] = experiment: Herbicidal activity against Capsella bursa-pastoris in tomato plants fields exposed to 180 L/ha compound fumigation treatment assessed as hand weeding time per plot relative to untreated control; assay type: functional
Cucumis sativus [22] = experiment: Increase in plant height of Cucumis sativus (cucumber) exposed to 120 L/ha compound fumigation treatment measured 30 days after compound treatment (reference value: 85.6 cm); assay type: functional
Capsella bursa-pastoris [23] = experiment: Herbicidal activity against Capsella bursa-pastoris in cucumber plants fields exposed to 120 L/ha compound fumigation treatment assessed as hand weeding time per plot relative to untreated control; assay type: functional
Solanum lycopersicum [24] = experiment: Increase in plant height of Solanum lycopersicum (tomato) exposed to 180 L/ha compound fumigation treatment measured 50 days after compound treatment (reference value: 86.2 cm); assay type: functional
Botrytis cinerea = experiment: Fungicidal activity against Botryotinia fuckeliana-induced withering in tomato plants at 120 to 180 L/ha measured 20 to 60 days post compound treatment; assay type: functional, organism-based
Digitaria sanguinalis [25] = experiment: Herbicidal activity against Digitaria sanguinalis (hairy crabgrass) in tomato plants fields exposed to 120 L/ha compound fumigation treatment assessed as hand weeding time per plot relative to untreated control; assay type: functional
Cucumis sativus [26] = experiment: Increase in plant height of Cucumis sativus (cucumber) exposed to 120 L/ha compound fumigation treatment measured 50 days after compound treatment (reference value: 103.2 cm); assay type: functional
Solanum lycopersicum [27] = experiment: Increase in crop yield in Solanum lycopersicum (tomato) plants exposed to 180 L/ha compound fumigation treatment assessed as large fruit yield (reference value: 15.2 ton/ha); assay type: functional
Arenaria serpyllifolia [28] = experiment: Herbicidal activity against Arenaria serpyllifolia in cucumber plants fields exposed to 90 L/ha compound fumigation treatment assessed as hand weeding time per plot (reference value: 258.3 hr/ha); assay type: functional
Capsella bursa-pastoris [29] = experiment: Herbicidal activity against Capsella bursa-pastoris in tomato plants fields exposed to 120 L/ha compound fumigation treatment assessed as hand weeding time per plot (reference value: 243.3 hr/ha); assay type: functional
Arenaria serpyllifolia [30] = experiment: Herbicidal activity against Arenaria serpyllifolia in cucumber plants fields exposed to 120 L/ha compound fumigation treatment assessed as hand weeding time per plot (reference value: 258.3 hr/ha); assay type: functional
Arenaria serpyllifolia [31] = experiment: Herbicidal activity against Arenaria serpyllifolia in cucumber plants fields exposed to 120 L/ha compound fumigation treatment assessed as hand weeding time per plot relative to untreated control; assay type: functional
Meloidogyne incognita [32] = experiment: Nematicidal activity against Meloidogyne incognita (root-knot nematode) in tomato growing fields exposed to 180 L/ha compound fumigation treatment assessed as root galling index measured 20 days after compound treatment (reference value: 8.51 root galling index); assay type: functional
Solanum lycopersicum [33] = experiment: Increase in crop yield in Solanum lycopersicum (tomato) plants exposed to 90 L/ha compound fumigation treatment assessed as extra-large fruit yield (reference value: 3.8 ton/ha); assay type: functional
Meloidogyne incognita [34] = experiment: Nematicidal activity against Meloidogyne incognita (root-knot nematode) in cucumber growing fields exposed to 90 L/ha compound fumigation treatment assessed as root galling index measured 20 days after compound treatment (reference value: 8.72 root galling index); assay type: functional
Solanum lycopersicum [35] = experiment: Increase in crop yield in Solanum lycopersicum (tomato) plants exposed to 180 L/ha compound fumigation treatment assessed as extra-large fruit yield (reference value: 3.8 ton/ha); assay type: functional

`Cl/C=C/CCl` [1,3-DICHLOROPROPENE] showed an Activity (Capsella bursa-pastoris [1]) of 45%, an Activity (Arenaria serpyllifolia [2]) of 45% and an Activity (Digitaria sanguinalis [3]) of 45%. The Crop_yield (Solanum lycopersicum [4]) was 98.8 tons/ha, the Activity (Digitaria sanguinalis [5]) was 45% and the Activity (Phytophthora melonis) was “Active”. The Crop_yield (Solanum lycopersicum [6]) was 76.3 tons/ha, the Crop_yield (Solanum lycopersicum [7]) was 27.9 tons/ha and the Crop_yield (Solanum lycopersicum [8]) was 11.5 tons/ha. It also gave a Time (Arenaria serpyllifolia [9]) of 66.4 hr/ha, an Activity (Solanum lycopersicum [10]) of 108.6 cm and a Crop_yield (Solanum lycopersicum [11]) of 89.1 tons/ha. For the same compound, the Crop_yield (Solanum lycopersicum [12]) was 49.1 tons/ha, the Time (Capsella bursa-pastoris [13]) was 85.6 hr/ha and the Time (Digitaria sanguinalis [14]) was 74.4 hr/ha. It also gave a Crop_yield (Solanum lycopersicum [15]) of 68.1 tons/ha, a Crop_yield (Solanum lycopersicum [16]) of 62.4 tons/ha and a Crop_yield (Solanum lycopersicum [17]) of 24.8 tons/ha. It also gave an Activity (Digitaria sanguinalis [18]) of 45%, a Crop_yield (Solanum lycopersicum [19]) of 42.5 tons/ha and a Root_galling_index (Meloidogyne incognita [20]) of 2.02. For the same compound, the Activity (Capsella bursa-pastoris [21]) was 45%, the Activity (Cucumis sativus [22]) was 96.8 cm and the Activity (Capsella bursa-pastoris [23]) was 45%. The Activity (Solanum lycopersicum [24]) was 117.8 cm, the Activity (Botrytis cinerea) was “Active” and the Activity (Digitaria sanguinalis [25]) was 45%. The Activity (Cucumis sativus [26]) was 120.5 cm, the Crop_yield (Solanum lycopersicum [27]) was 22.6 tons/ha and the Time (Arenaria serpyllifolia [28]) was 90.5 hr/ha. The Time (Capsella bursa-pastoris [29]) was 66.4 hr/ha, the Time (Arenaria serpyllifolia [30]) was 74.4 hr/ha and the Activity (Arenaria serpyllifolia [31]) was 45%. The Root_galling_index (Meloidogyne incognita [32]) was 2.34, the Crop_yield (Solanum lycopersicum [33]) was 4.8 tons/ha and the Root_galling_index (Meloidogyne incognita [34]) was 4.28. It also gave a Crop_yield (Solanum lycopersicum [35]) of 8.4 tons/ha.
